Reference: patent US11142515B2, “Pyrazolyl-ureas as kinase inhibitors” (RESPIVERT LIMITED, priority 2014, dated 2021)

Key:
d-U937 cells = assay: Cell viability: MTT assay in differentiated U937 cells; type: cell-based, human; conditions: 10 μg/mL
Experimental: Differentiated U937 cells were pre-incubated with each test compound (final concentration 10 μg/mL in 200 μL media indicated below) under two protocols: the first for 4 h in 5% FCS RPMI1640 media and the second in 10% FCS RPMI1640 media for 24 h. The supernatant was replaced with new media (200 μL) and MTT stock solution (10 μL, 5 mg/mL) was added to each well. After incubation for 1 h the media were removed, DMSO (200 μL) was added to each well and the plates were shaken lightly for 1 h prior to reading the absorbance at 550 nm. The percentage loss of cell viability was calculated for each well relative to vehicle (0.5% DMSO) treatment. Consequently an apparent increase in cell viability for drug treatment relative to vehicle is tabulated as a negative percentage.

p38MAPKγ (MAPK12) = target: T1, p38MAPKγ (MAPK12) (Homo sapiens, UniProt P53778); assay: p38 MAPKγ enzyme inhibition (Z-LYTE FRET); type: biochemical; conditions: Table 2B, unit inferred; read-out: p38 MAPKγ (Enzyme Profile)
T1 construct: purchased Life Technologies
T1 sequence (P53778 1-367): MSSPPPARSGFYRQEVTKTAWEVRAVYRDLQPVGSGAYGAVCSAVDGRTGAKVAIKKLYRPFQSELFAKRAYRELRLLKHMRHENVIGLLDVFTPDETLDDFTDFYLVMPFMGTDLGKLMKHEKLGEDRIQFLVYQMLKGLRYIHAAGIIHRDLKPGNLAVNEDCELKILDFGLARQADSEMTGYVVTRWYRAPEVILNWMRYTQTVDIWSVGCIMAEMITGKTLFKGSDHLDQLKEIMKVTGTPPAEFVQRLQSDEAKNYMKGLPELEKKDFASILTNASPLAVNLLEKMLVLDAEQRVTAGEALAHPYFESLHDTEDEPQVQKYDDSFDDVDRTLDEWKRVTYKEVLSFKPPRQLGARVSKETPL
Summary of the method: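 Z-LYTE read-out: after 1 h protease development, only non-phosphorylated peptide is cleaved, and the donor/acceptor (coumarin/fluorescein) ratio reports phosphorylation. Beforehand, enzyme and compound (stock concentrations 0.0012–40 μg/mL) were preincubated 2 h at RT, then the kinase reaction ran 1 h at RT with peptide and ATP (8 μM and 400 μM stocks).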

[1] = target: T2, p38 MAPKα isoform (MAPK14) (Homo sapiens, UniProt Q16539); assay: p38 MAPKα enzyme inhibition (Z-LYTE FRET); type: biochemical; conditions: Table 2B, unit inferred; read-out: p38 MAPKα (Enzyme Profile)
T2 construct: purchased Life Technologies
T2 sequence (Q16539 whole entry, canonical isoform): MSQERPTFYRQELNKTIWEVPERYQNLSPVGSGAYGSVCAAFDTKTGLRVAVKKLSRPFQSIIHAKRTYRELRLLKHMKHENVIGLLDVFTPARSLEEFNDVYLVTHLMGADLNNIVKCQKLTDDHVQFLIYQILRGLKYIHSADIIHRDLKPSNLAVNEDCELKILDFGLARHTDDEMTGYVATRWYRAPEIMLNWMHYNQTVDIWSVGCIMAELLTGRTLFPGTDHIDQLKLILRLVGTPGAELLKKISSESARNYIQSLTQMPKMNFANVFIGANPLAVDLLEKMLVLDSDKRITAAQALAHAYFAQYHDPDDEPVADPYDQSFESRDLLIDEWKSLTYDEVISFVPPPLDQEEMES
Summary of the method: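 Recombinant human MAPK14 (40 ng/mL stock) was preincubated 2 h at RT with compound (stock dilutions 0.0012-40 μg/mL). The Z-LYTE FRET read-out used a MAPKAP-K2-derived peptide, and protease development for 1 h cleaved only non-phosphorylated peptide. Phosphorylation was calculated from the coumarin/fluorescein emission ratio.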

Row | IC50 (p38MAPKγ (MAPK12)) [nM] | IC50 [1] [nM] | SMILES | MTT Assay Cell viability at time point indicated in d-U937 Cells, 4 h (d-U937 cells; 4 h) | MTT Assay Cell viability at time point indicated in d-U937 Cells, 24 h (d-U937 cells; 24 h)
1 |  |  | COCC(=O)Nc1cc(Oc2ccc(NC(=O)Nc3cc(C(C)(C)C)nn3-c3ccc(C)cc3)c3ccccc23)ccn1 [Reference Compound, N-(4-(4-(3-(3-tert-butyl-1-p-tolyl-1H-pyrazol-5-yl)ureido)naphthalen-1-yloxy)pyridin-2-yl)-2-methoxyacetamide, reference compound] | − (−ve and +ve indicate the value is below and above, respectively, the no significant effect threshold defined as 30% inhibition at 10 μg/mL at the time point indicated) | + (−ve and +ve indicate the value is below and above, respectively, the no significant effect threshold defined as 30% inhibition at 10 μg/mL at the time point indicated)
2 | > 15900 | 19 | CCOc1cccc(-n2nc(C(C)(C)C)cc2NC(=O)Nc2ccc(OCc3ccnc(Nc4cnccn4)c3)c3ccccc23)c1 [Example 184, 1-(3-(tert-butyl)-1-(3-ethoxyphenyl)-1H-pyrazol-5-yl)-3-(4-((2-(pyrazin-2-ylamino)pyridin-4-yl)methoxy)naphthalen-1-yl) urea] |  | 
